In US8592408B2, “Fused aminodihydrothiazine derivatives” (Eisai R&D Management Co., Ltd., priority 2011, dated 2013):
Where two headings read alike, the source gives them in different places.

Columns and labels:
[1] = test system: Salmonella typhimurium tester strains TA98, TA100, TA1535 and TA1537 and Escherichia coli tester strain WP2 uv; assay: Ames test; type: cell-based; details: absence and presence of rat liver S9, up to highest dose tested 5000 ug/plate
Method: The title compound was subjected to an Ames test (Salmonella typhimurium tester strains TA98, TA100, TA1535 and TA1537 and Escherichia coli tester strain WP2 uv. Mutation Research 1975, 31, 347; Mutation Research 1976, 38, 3; Proc. Nat. Acad. Sci. USA 1976, 73, 950; Proc. Nat. Acad. Sci. USA 1975, 72, 5135) in the absence and presence of rat liver S9. The compound was negative up to the highest dose/concentration tested (5000 ug/plate).

[2] = Rat in vivo CNS penetration (plasma, brain and CSF concentrations); details: 10 mg/kg p.o.; for Kp at 2 h / Kp at 4 h / Kp at 6 h / Kp at 8 h: male, Sprague Dawley, po, rat
Method: Rat In Vivo CNS Penetration
Male Sprague Dawley rats were acquired from Charles River UK Ltd. (Margate, UK) and housed according to UK Home Office guidelines. Drugs were made up to the appropriate concentrations in 0.5% methyl cellulose. Animals were dosed orally (2 mL/kg) by gavage at the doses outlined in Tables 2 to 4 below.
At the time points post-dosing, specified in Tables 2 to 4 below the animals were administered an i.p. injection of sodium pentobarbitone (approximately 330 mg/kg for terminal anaesthesia).
Using a guillotine, the animals were decapitated and trunk blood collected into 15 ml Falcon tubes containing 100 IU heparin. Blood was vortexed followed by centrifugation at 6000 rpm, 4° C. for 5 minutes. Plasma was collected for DMPK and ELISA assays and stored at −80° C. until use. Brains were dissected out and divided along the midline, weighed and stored at −80° C. until further use.
Method for Analysis of Plasma, Brain and CSF Samples
Test compound was prepared as a 1 mg free base/mL solution in DMSO, vortexed and sonicated for 5 min. The 1 mg/mL DMSO solution was diluted to 10 and 30 μg/mL acetonitrile stocks, by adding 10 μL to 990 μL acetonitrile and 30 μL to 970 μL acetonitrile, respectively. The 10 and 30 μg/mL acetonitrile stocks were then serially diluted 1:9 (v/v) (100 μL stock into 900 μL acetonitrile) to give the following solutions: 0.003, 0.01, 0.03, 0.1, 0.3, 1, 3, 10 and 30 μg/mL acetonitrile.
Control male Sprague Dawley rat plasma and the study plasma samples were stored at −80° C. until the day of analysis when they were thawed at room temperature. Control plasma was centrifuged (2,000 g for 10 min) and aliquoted (90 μL) into eppendorf tubes for preparation of standards and blank samples. Study samples were previously aliquoted (100 μL) into eppendorf tubes immediately following collection of the plasma.
Double blank and blank samples were prepared by adding 10 μL of acetonitrile to 90 μL of blank plasma.
Control male Sprague Dawley rat brain and the study brain samples were weighed after collection and stored at −80° C. until the day of analysis when they were thawed at room temperature. Once thawed brains were diluted with water (4 mL per gram of tissue) and homogenised using a mechanical homogeniser. An aliquot (100 μL) of each study sample was taken into Micronics tubes ready for analysis and sufficient aliquots (90 μL) of control brain homogenate prepared for preparation of standards and blanks.
Double blank and blank samples were prepared by adding 10 μL of acetonitrile to 90 μL of blank brain homogenate.
Each plasma and brain homogenate sample, standard and blank (100 μL) was extracted with an aliquot (300 μL) of acetonitrile (containing 0.1% formic acid and 100 ng/mL of an appropriate internal standard). Double blanks were extracted with an aliquot (300 μL) of acetonitrile containing 0.1% formic acid). All samples, standards and blanks were then vortex mixed and centrifuged (2000 g for 15 min). An aliquot (50 μL) of the resulting supernatant was then taken into a 2 mL 96-deep well plate and diluted with acetonitrile:water (50:50 v/v) (150 μL) ready for analysis by a specific LC-MS/MS method.
Control male Sprague Dawley rat CSF and the study CSF samples were stored at −80° C. until the day of analysis when they were thawed at room temperature. An aliquot (50 μL) of each study sample was taken into Micronics tubes ready for analysis and sufficient aliquots (45 μL) of control CSF prepared for preparation of standards and blanks.
Double blank and blank samples were prepared by adding 5 μL of acetonitrile to 45 μL of blank CSF.
Each CSF sample, standard and blank (50 μL) was extracted with an aliquot (150 μL) of acetonitrile (containing 0.1% formic acid and 100 ng/mL of an appropriate internal standard). Double blanks were extracted with an aliquot (150 μL) of acetonitrile containing 0.1% formic acid.

[3] = Plasma protein binding (PPB), rapid equilibrium dialysis; type: in vitro ADME; details: male, Sprague Dawley, rat, RED 6 h 37° C.
Method: (§1) Method For Determination of Plasma Protein Binding (PPB) and Brain Tissue Binding (BTB)
(§2) On the morning of dialysis, control male Sprague Dawley rat plasma and brain, previously stored at −80° C. were thawed at room temperature. Plasma was checked for pH and if necessary adjusted to 7.4 with 1M HCl. Plasma was then centrifuged (2000 g for 10 min) and the brains diluted with 2 mL of Phosphate Buffered Saline (pH 7.4) per gram of tissue and homogenised using a mechanical homogeniser.
(§3) The Rapid Equilibrium Dialysis (RED) plate (Thermo Scientific) was prepared in accordance with the manufacturers guidelines i.e. the base plate was soaked in 20% (v/v) ethanol for 10 min and then rinsed twice with deionised water before being allowed to dry. […] The plate was then covered with an adhesive and incubated in air at 37° C. for 6 h with 130 rpm agitation.
(§4) Following the 6 h incubation, the seal was removed and an aliquot (50 μL) taken from the PBS chambers and dispensed into Micronics tubes. […]
(§5) Samples were vortex mixed and an aliquot (300 μL) of acetonitrile containing 0.1% formic acid and 100 ng/mL of an appropriate internal standard added. Samples were then mixed and centrifuged (2000 g for 15 min) and an aliquot of the supernatant (100 μL) removed into a 96-deep well plate and diluted with an equal volume of water ready for analysis by LC-MS/MS.

[4] = test system: Aβ peptide production in rat primary neuronal culture; assay: Quantification of Aβ peptide in culture of neurons from rat fetus brain (Aβ ELISA); type: cell-based; details: Primary cortical neuron, Aβ species (ABx-40 1 day / ABx-42 3 days) not given
[5] = Effects on QTc interval in anaesthetised beagle dogs; type: in vivo; details: anaesthetised beagle dog, infusion 1, 3, 10 mg/kg/10 min, up to the highest dose/concentration tested
Method: Assessment of Effects on QTc Interval in Beagle Dogs
Male beagle dogs were weighed and injected with sodium thiopental for induction of anesthesia.
The carotid artery and saphenous vein were cannulated with lines containing heparinised saline and a LII ECG connected and monitored using polygraph system. Animals were allowed to stabilise for 30 minutes before the infusion of compound solution and the infusion via cannula was started from time zero with 1 mg/kg/10 min. The dose was increased to 3 mg/kg/10 min, then 10 mg/kg/10 min. An arterial blood sample was collected after every dosing for PK analysis.

[6] = biological target: T1, P-glycoprotein (MDR1-MDCK cells) (Homo sapiens, UniProt P08183); assay: MDR1-MDCK permeability (bi-directional) Pgp efflux assay; type: in vitro ADME; details: MDR1-MDCK, pH 7.4/pH 7.4, 10 μM, 60 min; ER=Papp(B-A)/Papp(A-B)
T1 construct: assay run at Cyprotex Discovery Ltd; host or cells: MDCK (canine kidney epithelial) cells stably transfected with MDR1
T1 sequence (P08183 whole entry): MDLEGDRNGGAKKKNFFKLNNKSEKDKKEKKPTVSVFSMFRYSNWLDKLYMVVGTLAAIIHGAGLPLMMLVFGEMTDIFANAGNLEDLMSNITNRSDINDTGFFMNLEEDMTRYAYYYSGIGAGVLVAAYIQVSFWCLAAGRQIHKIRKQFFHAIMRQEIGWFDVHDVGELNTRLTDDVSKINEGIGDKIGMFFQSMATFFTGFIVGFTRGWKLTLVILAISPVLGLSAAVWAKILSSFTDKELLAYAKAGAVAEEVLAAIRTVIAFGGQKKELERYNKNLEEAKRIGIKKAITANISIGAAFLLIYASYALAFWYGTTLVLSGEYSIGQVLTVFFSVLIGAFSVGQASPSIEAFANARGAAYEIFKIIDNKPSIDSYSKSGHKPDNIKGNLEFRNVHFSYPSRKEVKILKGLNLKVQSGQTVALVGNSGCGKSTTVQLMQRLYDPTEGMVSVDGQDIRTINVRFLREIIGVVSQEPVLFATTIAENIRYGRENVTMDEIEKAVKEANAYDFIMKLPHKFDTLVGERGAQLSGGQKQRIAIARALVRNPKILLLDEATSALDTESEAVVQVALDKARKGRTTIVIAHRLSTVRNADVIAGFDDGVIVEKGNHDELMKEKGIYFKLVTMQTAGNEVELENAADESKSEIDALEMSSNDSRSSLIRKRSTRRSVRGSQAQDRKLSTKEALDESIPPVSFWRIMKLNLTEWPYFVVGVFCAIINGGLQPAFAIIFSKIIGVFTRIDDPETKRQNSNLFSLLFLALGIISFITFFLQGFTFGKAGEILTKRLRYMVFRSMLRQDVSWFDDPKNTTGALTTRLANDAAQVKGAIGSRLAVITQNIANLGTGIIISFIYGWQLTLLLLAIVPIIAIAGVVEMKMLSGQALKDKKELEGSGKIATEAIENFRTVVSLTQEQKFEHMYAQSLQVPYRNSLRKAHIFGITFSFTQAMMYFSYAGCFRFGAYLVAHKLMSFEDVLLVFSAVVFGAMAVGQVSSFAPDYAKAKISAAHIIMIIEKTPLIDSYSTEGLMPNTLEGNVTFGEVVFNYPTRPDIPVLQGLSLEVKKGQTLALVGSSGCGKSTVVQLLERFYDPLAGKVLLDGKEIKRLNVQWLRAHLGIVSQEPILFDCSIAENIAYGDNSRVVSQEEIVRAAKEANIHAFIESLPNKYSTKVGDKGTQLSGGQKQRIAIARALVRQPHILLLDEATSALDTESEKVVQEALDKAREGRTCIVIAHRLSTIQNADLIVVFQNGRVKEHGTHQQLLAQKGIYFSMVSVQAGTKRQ
Method: (§6) Test compound permeability was assessed in duplicate.
(§7) Test and control compounds were quantified by LC-MS/MS cassette analysis using a 5-point calibration with appropriate dilution of the samples. Cyprotex generic analytical conditions were used. The starting concentration (C0) was determined from the dosing solution and the experimental recovery calculated from C0 and both apical and basolateral compartment concentrations.
(§8) Lucifer yellow permeation is low if monolayers have not been damaged.
(§9) Where dQ/dt is the rate of permeation of the drug across the cells, C0 is the donor compartment concentration at time zero and A is the area of the cell monolayer.

[7] = Effects on QTc interval in anaesthetised guinea pigs; type: in vivo; details: anaesthetised guinea pig, i.v. infusion 2.0, 6.0, 20 mg/kg/10 min, up to the highest dose/concentration tested
Method: Assessment of Effects on QTc Interval in Guinea Pigs
Male Dunkin-Hartley guinea pigs were weighed and anaesthetised using 4% isoflurane in carbogen. […] Xylazine at 2 mg/kg i.m. was administered into the hind limb as a bradycardic agent to enable detection of QTc prolongation by the software.
The carotid artery and jugular vein were cannulated with lines containing heparinised saline and a 3-lead ECG connected and monitored using LabChart Pro software. Animals were allowed to stabilise for 30 minutes after the completion of the surgical procedure, before the initiation of an i.v. vehicle (5% DMSO/90% MilliQ/5% 0.1N HCl) infusion from time zero (infusion rate=0.2 ml/kg/min). At 10 mins, an arterial blood sample was collected for PK analysis (150u1; all collection syringes were heparinised). At 12 mins, drug infusion was started @ 2.0 mg/kg/10 min i.v. The dose was increased to 6.0 mg/kg/10 min, then 20 mg/kg/10 min i.v., with a 10 minutes infusion period and two minutes blood sampling at each dose. After the final dose, a blood sample was taken and a second vehicle infusion initiated. Eight minutes later a terminal blood sample was collected for plasma PK analysis and the animal killed by a Schedule 1 method.
QTc (Bazett's) changes were analysed using LabChart Pro software.

[8] = Brain tissue binding (BTB), rapid equilibrium dialysis; type: in vitro ADME; details: rat brain homogenate, RED 6 h 37° C.
Method: as §1, §2, §3, §4, §5

P-glycoprotein (MDR1) = biological target: T2, P-glycoprotein (MDR1) (Homo sapiens, UniProt P08183); assay: MDR1-MDCK permeability (bi-directional) Pgp efflux assay; type: in vitro ADME; details: dog, MDCK-MDR1, pH 7.4; read-out: Pgp ER
T2 construct: assay run at Cyprotex Discovery Ltd; host or cells: MDCK (canine kidney epithelial) cells stably transfected with MDR1
T2 sequence (P08183 whole entry): as above
Method: as §6, §7, §8, §9

Aβ40 = details: TASTPM mice, cited from earlier work
BACE-1 = BACE-1 (Homo sapiens, UniProt P56817); details: cited from earlier work
Chain of BACE-1 (P56817 46-501, species assumed): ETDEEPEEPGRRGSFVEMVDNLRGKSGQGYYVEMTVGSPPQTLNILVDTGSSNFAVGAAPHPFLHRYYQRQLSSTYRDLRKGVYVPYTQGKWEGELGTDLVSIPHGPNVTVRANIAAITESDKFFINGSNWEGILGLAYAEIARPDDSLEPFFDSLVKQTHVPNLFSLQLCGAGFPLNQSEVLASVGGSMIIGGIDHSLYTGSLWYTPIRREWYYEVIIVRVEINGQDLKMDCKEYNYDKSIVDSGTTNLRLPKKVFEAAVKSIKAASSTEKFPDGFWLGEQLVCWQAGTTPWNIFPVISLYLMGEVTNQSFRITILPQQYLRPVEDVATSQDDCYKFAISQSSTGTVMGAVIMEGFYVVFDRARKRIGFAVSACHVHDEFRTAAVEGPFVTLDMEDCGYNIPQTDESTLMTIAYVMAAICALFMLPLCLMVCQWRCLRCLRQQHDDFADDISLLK

[9] = TASTPM mice, cited from earlier work; for brain concentration: oral dose of 250 mg/kg
[10] = CSF / plasma (unbound), read-out: CSF:Plu
[11] = brain (total) / plasma (total), read-out: Brtot:Pltot
[12] = brain (unbound) / plasma (unbound), read-out: Bru:Plu

NC1=N[C@@]2(c3cc(N)ccc3F)CO[C@H](C(F)(F)F)[C@H]2CS1 [1-(25), (4aS,5S,7aS)-7a-(5-amino-2-fluorophenyl)-5-(trifluoromethyl)-4a,5,7,7a-tetrahydro-4H-furo[3,4-d][1,3]thiazin-2-amine]
Ames test result [1]: negative

NC1=N[C@@]2(c3cc(NC(=O)c4cnc(CF)cn4)ccc3F)CO[C@H](C(F)(F)F)[C@H]2CS1 [Example 8, N-(3-((4aS,5S,7aS)-2-amino-5-(trifluoromethyl)-4a,5,7,7a-tetrahydro-4H-furo[3,4-d][1,3]thiazin-7a-yl)-4-fluorophenyl)-5-(fluoromethyl)pyrazine-2-carboxamide]
Kp at 2 h [2, 10]: 0.5 | Kp at 4 h [2, 10]: 0.6 | Kp at 6 h [2, 10]: 0.5 | Kp at 2 h [2, 11]: 3.3 | Kp at 4 h [2, 11]: 3.9 | Kp at 6 h [2, 11]: 3.7 | Kp at 8 h ([2]; brain (total) / plasma (total), 8 h, read-out: Brtot:Pltot): 3.8 | Kp at 2 h [2, 12]: 0.7 | Kp at 4 h [2, 12]: 0.8 | Kp at 6 h [2, 12]: 0.8 | Kp at 8 h ([2]; brain (unbound) / plasma (unbound), 8 h, read-out: Bru:Plu): 0.8 | [CSF] ([2]; rat CSF, 8 h): ^3n.q. | fraction unbound at 6 h, 1 μg/mL ([3]; pH 7.4, fraction unbound, rat plasma, mean of n = 3, read-out: Rat Plasma fu): 0.104 | fraction unbound at 6 h, 1 μg/mL ([3]; pH 7.4, rat plasma, mean of n = 3, read-out: Rat PPB (%) (converted)): 0.104 | IC50 [4]: 6 nM | QTc change [5]: unchanged | Pgp ER [6]: 1.7 | QTc (Bazett's) change [7]: unchanged | fraction unbound at 6 h, 1 μg/mL ([8]; male, Sprague Dawley, pH 7.4, fraction unbound, mean of n = 3, read-out: Rat Brain fu): 0.022 | Rat BTB (%) ([8]; 1 μg/mL, mean of n = 3): 97.8%

COCc1cnc(C(=O)Nc2ccc(F)c([C@]34CO[C@H](C(F)(F)F)[C@H]3CSC(N)=N4)c2)cn1 [Example 13, N-(3-((4aS,5S,7aS)-2-amino-5-(trifluoromethyl)-4a,5,7,7a-tetrahydro-4H-furo[3,4-d][1,3]thiazin-7a-yl)-4-fluorophenyl)-5-(methoxymethyl)pyrazine-2-carboxamide]
IC50 [4]: 44 nM | efflux ratio at 60 min, 10 μM (P-glycoprotein (MDR1)): 1.7

CCNc1cc(C(=O)N[C@@H](Cc2ccccc2)[C@H](O)CNCc2cccc(C(F)(F)F)c2)c(F)c(N2CCCCS2(=O)=O)c1 [GSK188909]
effect on brain Aβ40 levels (Aβ40; 250 mg/kg oral dose, absence of a Pgp inhibitor): did not have any effect | reduction in brain Aβ40 levels relative to vehicle treated mice (Aβ40; 250 mg/kg oral, Pgp inhibitor co-administered 5 hours prior): 68% | IC50 (BACE-1): 5 nM | increase in CNS penetration by co-administration of a Pgp inhibitor ([9]; 250 mg/kg oral, with vs without GF120918): ~9 fold | brain concentration ([9]; Pgp inhibitor GF120918 dosed 5 hours before): 5.43 µM | brain concentration ([9]; no Pgp inhibitor): 0.62 µM
